Counter-ions that a name gives are not always drawn. Like-named read-outs stand apart in the source and are kept apart here. One block for each molecule: values may come before it.
Experiments:
[1] = Salt selection properties; assay type: physicochemical
[2] = system: clotting parameters (ACT, PT, aPTT, anti fXa units, plasma thrombin generation); experiment: Ex vivo coagulation measurements and bleeding time in baboon model
[3] = Plasma concentration of betrixaban in baboon model; assay type: in vivo
[4] = system: thrombus mass in rabbit abdominal vena cava; experiment: Rabbit vena cava thrombosis model (clot accretion on cotton threads); assay type: in vivo; conditions: 3 mg/kg IV infusion
Description: Multiple doses of betrixaban were evaluated in three animal models. […] Efficacy in rabbit venous thrombosis was determined by measuring the thrombus accretion on cotton threads placed in the vena cava by means of a catheter inserted into the left femoral vein, as described by Hollenbach et al., Thromb. Haemost. 1994; 71:357-362, incorporated by reference in its entirety herein. The decrease in thrombus weight following a two hour infusion of compound was expressed relative to vehicle control. See also Sinha, et al., Eur. J. Pharmacology. 395:51-59 (2000), incorporated by reference in its entirety herein.

venous thromboembolism = experiment: Randomized trial after total knee replacement: VTE incidence; assay type: in vivo, human; conditions: for VTE % (95% CI): 10 to 14 days after TKR
Description: The primary efficacy endpoint was the incidence of venous thromboembolism (“VTE”) (symptomatic or asymptomatic deep vein thrombosis on a mandatory unilateral venogram or symptomatic pulmonary embolism) through Day 10 to 14. Safety endpoints included the incidence of major and clinically significant nonmajor bleeds through the day after venography. All efficacy and bleeding endpoints were adjudicated by a blinded, independent central adjudication committee. […] Enoxaparin was administered subcutaneously 12 to 24 hours after surgery and every 12 hours (q 12 h) thereafter. Treatment continued for 10 to 14 days unless a protocol-specified stopping criterion had been met. After discharge from the hospital, patients self-administered study medication. The last dose of study medication was administered the morning of the scheduled mandatory venography of the operated leg (Day 10 to 14).

[5] = system: prothrombin time in human plasma; experiment: In vitro extension of PT in human plasma
[6] = system: prothrombin time in rat plasma; experiment: In vitro extension of PT in rat plasma
[7] = system: tissue factor initiated thrombin generation in human whole blood; experiment: Whole blood prothrombinase / tissue factor initiated thrombin generation assay; assay type: biochemical
Description: Thrombin activity was quantitated by cleavage of the fluorogenic substrate. […] Relative fluorescence unit (RFU) measurements of representative donor is shown.
Thrombin generation assays were performed as described in Example 4, with compounds added ex vivo to human whole blood. PT and aPTT values in various species determined from compounds added to platelet poor plasma. Samples were run on an ACL 3000plus (Coulter), PT determined using Dade® Thromboplastin C plus and aPTT determined using Dade® Actin® FS Activated PTT reagent.

[8] = system: prothrombin time in baboon plasma; experiment: In vitro extension of PT in baboon plasma
[9] = system: vessel patency in FeCl3 induced thrombosis in rat carotid artery; experiment: Rat carotid artery FeCl3 induced thrombosis model; assay type: in vivo
Description: Rat FeCl3 model adapted from Kurz, K. D. et al. Thromb. Res. 1990; 60(4):269-280, incorporated by reference in its entirety herein, utilizing the left carotid artery. A stenosis of the artery was applied with a silk ligature reducing blood flow by 50% with a light crush injury followed by application of 50% FeCl3 for the duration of the experiment. Blood flow was monitored via pulsed Doppler flow probe and recorded for 90 minutes post-FeCl3 application. Enoxaparin and Betrixaban administered IV. Clopidogrel administered orally Q.D. for 3 days.

[10] = system: thrombus growth (platelet deposition, fibrin deposition) in arteriovenous shunt; experiment: Thrombogenic device in arteriovenous shunt in baboons; assay type: in vivo, baboon
[11] = Randomized trial after total knee replacement: bleeding and tolerability; set-up: species or system human; conditions: in vivo
Source text: The primary efficacy endpoint was the incidence of venous thromboembolism (“VTE”) (symptomatic or asymptomatic deep vein thrombosis on a mandatory unilateral venogram or symptomatic pulmonary embolism) through Day 10 to 14. Safety endpoints included the incidence of major and clinically significant nonmajor bleeds through the day after venography. All efficacy and bleeding endpoints were adjudicated by a blinded, independent central adjudication committee.

[12] = system: thrombin, factor VIIa, factor IXa, activated protein C, tissue plasminogen activator, plasmin and trypsin; experiment: Amidolytic assays for related proteases (specificity); assay type: biochemical; conditions: relative to human fXa
[13] = system: thrombin generation, anti-Xa activity, aPTT, PT, INR in patient plasma; experiment: Randomized trial after total knee replacement: pharmacodynamic measurements; assay type: in vivo, human
Description: Blood samples for assessment of plasma drug concentrations and pharmacodynamic measurements were obtained at screening, 1 to 4 hours after administration of the morning dose of study medication on Day 2, on the day of discharge and prior to the mandatory venogram on Day 10 to 14. Plasma samples were analyzed for betrixaban using high-performance-liquid-chromatography with tandem mass spectrometry. The method was validated for a range from 0.100-50.0 ng/mL, based on the analysis of 0.2 mL plasma. Quantitation was performed using a calibration standard curve generated from weighted least square regression analysis. […] The anti-Xa unit assay was adapted from the Coatest LMW heparin kit (Diapharma) and modified to a 96-well plate format. In this assay, standards and patient samples were assayed in duplicate and the limit of quantification was 0.05 anti-Xa U/mL. Thrombin generation was initiated by the addition of tissue factor (Innovin, Dade Behring) and calcium to citrate anticoagulated patient plasma (0.1 mL). Formation of thrombin was measured by cleavage of a specific thrombin substrate (Z-GGR-AMC, Bachem) over a 10 minute period. Relative fluorescence units were measured in a FlexStation fluorescence reader (Molecular Devices) and used for quantitation of thrombin generation. All patient plasma samples were assayed in triplicate and inhibition of thrombin generation reported as change from baseline relative fluorescent unit for each individual.

[14] = system: prothrombin time in rabbit plasma; experiment: In vitro extension of PT in rabbit plasma
[15] = system: TF-induced plasma thrombin generation; experiment: TF-induced plasma thrombin generation assay (plasma pool); assay type: biochemical, human
Source text: For the in vitro studies, a plasma pool was generated from blood collected via venipuncture into 3.2% (1:9 v/v) tri-sodium citrate from a minimum of ten donors. The specific thrombin substrate used was Z-GGR-AMC (Bachem). Tissue factor (Innovin, “TF”) was purchased from Dade Behring. Rabbit anti-human TF IgG and purified recombinant human TF were from American Diagnostica. COATEST LMW Heparin/Heparin Kits were from Chomogenix. Source of anticoagulants tested were as follows: enoxaparin sodium (Aventis Pharmaceuticals), fondaparinux sodium (Glaxo Smith Kline), bivalirudin (The Medicines Company), fXa inhibitor C921-78 (Betz, A. et al. Biochem., 1999; 38-14582-14591); rivaroxaban and razaxaban.
Thrombin generation in the plasma pool in the absence and presence of various anticoagulants and in warfarin treated patients was initiated by the addition of Innovin and calcium. Thrombin generation was measured by the continuous signal generated by cleavage of thrombin substrate over a 10 min period in a FlexStation fluorescence reader ([…]). The fluorescence signal (Max-Min relative fluorescence units) is presented as units (RFU) or arbitrary unites (AU) of thrombin generation and anti-fXa units were measured by Coatest. Quantitation of TF concentration in Innovin was carried out by immunoblotting with rabbit anti-human TF IgG, followed by densitometry and comparison with purified human TF (residues 1-263, expressed in baculovirus).

PT and aPTT = experiment: Ex vivo PT and aPTT in rat carotid model; conditions: 3 mg/kg/day
Description: The third model investigated inhibition of ^111In labeled platelet deposition on dacron grafts and expansion chambers placed in femoral arteriovenous shunts in baboons. In all models tested, betrixaban and enoxaparin were administered as IV infusions and clopidogrel was dosed orally for three days. Ex vivo PT and aPTT were measured in all models.

[16] = Baboon Arteriovenous, 0.49 mg/kg

Molecule: COc1ccc(NC(=O)c2ccc(C(=N)N(C)C)cc2)c(C(=O)Nc2ccc(Cl)cn2)c1 [betrixaban maleate]
crystallinity, thermal and hydrolytic stability [1]: excellent

Molecule: CN(C)Cc1nccn1-c1ccc(NC(=O)c2cc(C(F)(F)F)nn2-c2ccc3onc(N)c3c2)c(F)c1 [Razaxaban]
IC50 ([15]; read-out: IC50): 125 nM

Molecule: COC(=O)[C@H](c1ccccc1Cl)N1CCc2sccc2C1 [Clopidogrel]
Antithrombotic Activity ([9]; 3 mg/kg/day orally for 3 days): 80% patency | APTT fold change (PT and aPTT): 1.03 fold | PT fold change (PT and aPTT): 1.01 fold

Molecule: Bivalirudin
IC50 [15]: 2.4 µg/mL

Continued, in another order:

Template bleeding times ([2]; any of the betrixaban treated animals): not perturbed | Plasma Concentration Range of Betrixaban ([3]; Dosed Group 1): 7 to 10 ng/mL | Plasma Concentration Range of Betrixaban ([3]; Dosed Group 2): 13 to 21 ng/mL | Plasma Concentration Range of Betrixaban ([3]; Dosed Group 3): 26 to 38 ng/mL | Plasma Concentration Range of Betrixaban ([3]; Dosed Group 4): 54 to 88 ng/mL
Molecule: COc1ccc(NC(=O)c2ccc(C(=N)N(C)C)cc2)c(C(=O)Nc2ccc(Cl)cn2)c1 [betrixaban]
Anti fXa units ([2]; highest dose): 0.31 Units/ml | inhibition of plasma thrombin generation (ex vivo) ([2]; highest dose): 72% | inhibition of plasma thrombin generation (ex vivo) ([2]; lowest dose): 13% | Anti fXa units ([2]; three lower doses): below the limit of quantitation | Antithrombotic Activity [4]: 76% inhibition | VTE % (95% CI) (venous thromboembolism; 15 mg BID orally): 20 (12-32) % | VTE % (95% CI) (venous thromboembolism; 40 mg BID orally): 15 (8-27) % | preventing VTE after TKR (venous thromboembolism; in vivo): effective | concentration for 2× change of PT [5]: 0.4 µM | concentration for 2× change of PT [6]: 8.9 µM | suppressing both markers of thrombin generation, compared to fondaparinux (200 nM) ([7]; 200 nM, human whole blood): more potent | TAT and F1.2 generation ([7]; human whole blood): significantly inhibited | tissue factor initiated thrombin generation ([7]; human whole blood): dose-dependent inhibition | platelet mediated prothrombinase activity ([7]; whole blood prothrombinase assay): dose-dependently inhibited | concentration for 2× change of PT [8]: 1 µM | Antithrombotic Activity ([9]; 19.1 mg/kg IV): 90% patency | Antithrombotic Activity (arterial) [10, 16]: 32% inhibition | Antithrombotic Activity (venous) [10, 16]: 90% inhibition | Platelet deposition at 140 minutes ([10]; Dose 3 (26-38 ng/ml), P<0.05): significant decrease compared to control | % Inhibition of Fibrin Formation ([10]; Dosed Group 1): −0.38% | % Inhibition of Platelet Deposition ([10]; Dosed Group 1): 29.71% | % Inhibition of Fibrin Formation ([10]; Dosed Group 2): 37.50% | % Inhibition of Platelet Deposition ([10]; Dosed Group 2): 44.20% | % Inhibition of Fibrin Formation ([10]; Dosed Group 3): 71.97% | % Inhibition of Platelet Deposition ([10]; Dosed Group 3): 65.22% | % Inhibition of Fibrin Formation ([10]; Dosed Group 4): 87.12% | % Inhibition of Platelet Deposition ([10]; Dosed Group 4): 88.77% | Platelet deposition at 140 minutes ([10]; dose 4 (54-88 ng/ml), P value<0.01): significant decrease compared to control | safety and tolerability [11]: safe and well tolerated | specificity against related proteases [12]: greater than 86,000 fold | effect on anti-Xa activity ([13]; 15 mg, compared with enoxaparin): less | effect on the inhibition of thrombin generation ([13]; 40 mg, TKR patients, compared with enoxaparin): more pronounced | effect on anti-Xa activity ([13]; 40 mg, compared with enoxaparin): similar | other coagulation parameters (i.e. aPTT, PT and INR) ([13]; TKR patients): did not appreciably affect | concentration for 2× change of PT [14]: 1.6 µM

IC50 ([15]; read-out: IC50): 80 nM
Molecule: O=C(NC[C@H]1CN(c2ccc(N3CCOCC3=O)cc2)C(=O)O1)c1ccc(Cl)s1 [Rivaroxaban]

Reference: US8404724B2, “Unit dose formulations and methods of treating thrombosis with an oral factor Xa inhibitor” (Millennium Pharmaceuticals, Inc., priority 2006, dated 2013)
